Assays:
Format in all cases: biochemical
B-Raf V600E = molecular target: T1, B-Raf V600E (Homo sapiens, UniProt P15056, V600E); assay: AlphaScreen kinase assay, B-Raf V600E; details: read-out: IC50, activity toward kinase B-Raf V600E
T1 construct: P4254. pFastBacBD-CDC37 BRAF D437-K722-X, V600E; His6 with pFastBac HT leader (TEV site) (N); made in house; host or cells: Sf9 (baculovirus; chaperone CDC37 co-expressed)

Ret = molecular target: T2, Ret (Homo sapiens, UniProt P07949); assay: AlphaScreen kinase assay, Ret; details: read-out: IC50, activity toward kinase Ret
T2 construct: P1378.pET-SF BI-PTP RET H661-R1012 HIS; made in house
T2 sequence (P07949 with tags, fused parts or gaps): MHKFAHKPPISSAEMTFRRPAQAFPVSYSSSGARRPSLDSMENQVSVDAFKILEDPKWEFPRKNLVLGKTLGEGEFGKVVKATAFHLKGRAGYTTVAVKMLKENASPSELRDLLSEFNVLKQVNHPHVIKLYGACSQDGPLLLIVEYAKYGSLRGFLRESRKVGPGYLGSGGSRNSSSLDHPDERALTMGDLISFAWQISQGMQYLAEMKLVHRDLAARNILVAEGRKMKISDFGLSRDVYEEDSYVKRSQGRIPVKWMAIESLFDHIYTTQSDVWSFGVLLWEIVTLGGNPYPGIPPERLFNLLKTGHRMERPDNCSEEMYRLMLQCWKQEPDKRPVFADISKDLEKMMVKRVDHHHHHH

Flt4 = molecular target: T3, Flt4 (Homo sapiens, UniProt P35916); assay: AlphaScreen kinase assay, Flt4; details: read-out: IC50, activity toward kinase Flt4
T3 construct: purchased ProQinase GmbH (Freiburg, Germany)
T3 sequence (P35916 25-1363): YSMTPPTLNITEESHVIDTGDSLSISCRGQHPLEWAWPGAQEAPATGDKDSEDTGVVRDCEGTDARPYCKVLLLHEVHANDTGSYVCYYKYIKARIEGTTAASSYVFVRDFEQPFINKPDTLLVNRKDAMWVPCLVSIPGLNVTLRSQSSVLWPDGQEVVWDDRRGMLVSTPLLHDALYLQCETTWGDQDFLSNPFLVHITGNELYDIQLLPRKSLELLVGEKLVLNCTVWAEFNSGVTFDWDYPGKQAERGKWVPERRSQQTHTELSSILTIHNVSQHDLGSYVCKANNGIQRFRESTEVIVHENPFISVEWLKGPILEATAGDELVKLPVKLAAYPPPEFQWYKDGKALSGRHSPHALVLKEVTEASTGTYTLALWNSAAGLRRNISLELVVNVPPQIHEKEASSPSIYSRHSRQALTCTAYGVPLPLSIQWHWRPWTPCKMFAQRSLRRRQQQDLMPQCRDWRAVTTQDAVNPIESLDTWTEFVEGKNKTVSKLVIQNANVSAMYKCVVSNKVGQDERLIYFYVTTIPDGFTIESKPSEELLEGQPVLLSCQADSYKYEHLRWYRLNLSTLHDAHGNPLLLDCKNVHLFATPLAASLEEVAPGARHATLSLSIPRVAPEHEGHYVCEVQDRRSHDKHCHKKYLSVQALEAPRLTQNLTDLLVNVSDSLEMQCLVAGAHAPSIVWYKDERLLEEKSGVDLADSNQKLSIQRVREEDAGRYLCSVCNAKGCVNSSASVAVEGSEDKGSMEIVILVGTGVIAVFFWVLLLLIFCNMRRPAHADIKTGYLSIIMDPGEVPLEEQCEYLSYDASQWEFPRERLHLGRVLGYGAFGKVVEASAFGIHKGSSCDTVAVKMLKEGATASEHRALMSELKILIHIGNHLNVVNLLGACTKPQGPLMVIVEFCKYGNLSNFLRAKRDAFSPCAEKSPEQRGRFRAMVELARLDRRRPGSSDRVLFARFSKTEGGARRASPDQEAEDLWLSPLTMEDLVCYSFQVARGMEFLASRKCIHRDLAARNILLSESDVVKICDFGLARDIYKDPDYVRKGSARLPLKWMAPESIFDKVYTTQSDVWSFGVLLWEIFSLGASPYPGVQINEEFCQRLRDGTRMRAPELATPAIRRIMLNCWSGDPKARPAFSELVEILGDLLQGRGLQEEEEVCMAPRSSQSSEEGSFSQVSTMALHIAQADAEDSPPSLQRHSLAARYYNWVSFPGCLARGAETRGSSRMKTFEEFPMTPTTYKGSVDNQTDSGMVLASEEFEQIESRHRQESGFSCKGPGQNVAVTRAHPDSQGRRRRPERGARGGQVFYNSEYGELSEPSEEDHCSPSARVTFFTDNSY
Excerpt: AlphaScreen assay was used to screen additional kinases. The assay is similarly dependent on the phosphorylation of a peptide substrate. In this assay, an antibody that recognizes phosphorylated substrate is bound to an acceptor bead. The peptide substrate is attached to biotin, which binds to a donor head that contains streptavidin. Thus phosphorylated substrate is bound by antibody and streptavidin, bringing the donor and acceptor heads into close proximity when kinase is not inhibited. The donor produces singlet oxygen which results in emission from the acceptor when they are in close proximity. Conversely, when kinase is inhibited, the donor and acceptor beads are not associated and the emission from the acceptor is reduced.
AlphaScreen assays were done using compounds dissolved in DMSO to a concentration of 20 mM. The compounds were diluted accordingly to the desired final concentrations in each sample well, using 1:3 serial dilution for a total of 8 concentration points.

FGFR1 = molecular target: T4, FGFR1 (Homo sapiens, UniProt P11362, C488A/C584S); assay: AlphaScreen kinase assay, FGFR1; details: read-out: IC50, activity toward kinase FGFR
T4 construct: P1351.pET N6 BI-PTP FGFR A458-E765-X C488A, C584S; made in house; host or cells: E. coli (PTP1B co-expressed)
T4 sequence (P11362 458-765 C488A/C584S): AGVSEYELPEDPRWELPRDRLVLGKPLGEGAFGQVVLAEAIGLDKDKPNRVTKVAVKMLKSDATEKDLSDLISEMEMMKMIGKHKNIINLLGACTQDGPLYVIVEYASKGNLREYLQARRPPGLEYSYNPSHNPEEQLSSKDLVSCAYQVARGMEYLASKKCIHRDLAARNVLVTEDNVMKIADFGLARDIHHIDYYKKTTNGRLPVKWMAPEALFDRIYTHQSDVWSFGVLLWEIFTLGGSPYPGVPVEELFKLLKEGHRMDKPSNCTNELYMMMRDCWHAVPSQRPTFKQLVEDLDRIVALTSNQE

Jnk2 = molecular target: T5, Jnk2 (Homo sapiens, UniProt P45984); assay: AlphaScreen kinase assay, Jnk2; details: read-out: IC50, activity toward kinase Jnk2
T5 construct: purchased Roche Protein Expression Group (Indianapolis, IN)
Summary of the method: (§1)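 Stock 20 mM compound in DMSO, diluted 1:3 serially to 8 final concentrations. Kinase phosphorylates biotinylated peptide; donor (streptavidin) and acceptor (anti-phospho antibody) beads then associate. Reduced acceptor emission indicates inhibition.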

Jnk3 = molecular target: T6, Jnk3 (Homo sapiens, UniProt P53779); assay: AlphaScreen kinase assay, Jnk3; details: read-out: IC50, activity toward kinase Jnk3
T6 construct: purchased Upstate Biotechnology
T6 sequence (P53779 whole entry): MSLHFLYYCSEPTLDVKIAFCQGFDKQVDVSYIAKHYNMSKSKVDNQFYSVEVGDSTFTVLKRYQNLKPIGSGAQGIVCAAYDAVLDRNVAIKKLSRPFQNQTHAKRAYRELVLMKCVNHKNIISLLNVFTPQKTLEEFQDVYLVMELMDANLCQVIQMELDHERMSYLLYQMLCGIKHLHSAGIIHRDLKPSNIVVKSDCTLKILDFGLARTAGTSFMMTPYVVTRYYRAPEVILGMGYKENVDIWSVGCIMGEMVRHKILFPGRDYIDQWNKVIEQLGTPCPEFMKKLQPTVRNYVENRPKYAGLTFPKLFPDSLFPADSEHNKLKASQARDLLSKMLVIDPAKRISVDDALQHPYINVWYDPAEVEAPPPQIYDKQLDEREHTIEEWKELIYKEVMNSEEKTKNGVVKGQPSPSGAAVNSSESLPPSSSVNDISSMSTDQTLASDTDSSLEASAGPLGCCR

Kit = molecular target: T7, Kit (Homo sapiens, UniProt P10721); assay: AlphaScreen kinase assay, Kit; details: read-out: IC50, activity toward kinase Kit
T7 construct: P1332.N6 BI PTP KIT M552-K948-X COD; His6 (N); made in house; host or cells: E. coli (PTP1B co-expressed)
T7 sequence (P10721 with tags, fused parts or gaps): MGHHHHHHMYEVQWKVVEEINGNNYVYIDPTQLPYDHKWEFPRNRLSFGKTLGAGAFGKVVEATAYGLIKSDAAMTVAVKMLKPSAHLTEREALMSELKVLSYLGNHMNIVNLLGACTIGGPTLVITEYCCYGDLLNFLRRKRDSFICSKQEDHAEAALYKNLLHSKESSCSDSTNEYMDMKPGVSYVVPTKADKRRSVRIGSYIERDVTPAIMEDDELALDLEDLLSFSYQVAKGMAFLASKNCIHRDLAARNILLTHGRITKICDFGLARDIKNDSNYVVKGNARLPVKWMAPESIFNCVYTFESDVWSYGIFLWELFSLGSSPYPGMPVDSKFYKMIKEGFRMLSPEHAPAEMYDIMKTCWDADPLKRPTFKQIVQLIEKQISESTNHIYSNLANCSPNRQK

Abl = molecular target: T8, Abl (Homo sapiens, UniProt P00519); assay: AlphaScreen kinase assay, Abl; details: read-out: activity toward kinase Abl, IC50
T8 construct: P1121. pET-SPEC BI-PTP Abl G227-V515-X; His6 (N); made in house; host or cells: E. coli (PTP1B co-expressed)
T8 sequence (P00519 with tags, fused parts or gaps): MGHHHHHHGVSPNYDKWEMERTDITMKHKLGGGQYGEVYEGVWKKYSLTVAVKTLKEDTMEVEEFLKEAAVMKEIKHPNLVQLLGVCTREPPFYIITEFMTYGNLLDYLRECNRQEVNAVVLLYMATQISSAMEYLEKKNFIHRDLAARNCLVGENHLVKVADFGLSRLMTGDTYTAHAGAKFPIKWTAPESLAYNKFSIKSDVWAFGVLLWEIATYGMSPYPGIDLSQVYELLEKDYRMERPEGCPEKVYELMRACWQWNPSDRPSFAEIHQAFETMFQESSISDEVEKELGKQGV
Summary of the method: as §1

B-Raf = molecular target: T9, B-Raf (Homo sapiens, UniProt P15056); assay: AlphaScreen kinase assay, B-Raf; details: read-out: IC50, activity toward kinase B-Raf
T9 construct: purchased Upstate Biotechnology

Src = molecular target: T10, Src (Homo sapiens, UniProt P12931); assay: AlphaScreen kinase assay, Src; details: read-out: IC50, activity toward kinase Src
T10 construct: P1144. pET-N6 BI-PTP SRC V86-L536-X; made in house
T10 sequence (P12931 with tags, fused parts or gaps): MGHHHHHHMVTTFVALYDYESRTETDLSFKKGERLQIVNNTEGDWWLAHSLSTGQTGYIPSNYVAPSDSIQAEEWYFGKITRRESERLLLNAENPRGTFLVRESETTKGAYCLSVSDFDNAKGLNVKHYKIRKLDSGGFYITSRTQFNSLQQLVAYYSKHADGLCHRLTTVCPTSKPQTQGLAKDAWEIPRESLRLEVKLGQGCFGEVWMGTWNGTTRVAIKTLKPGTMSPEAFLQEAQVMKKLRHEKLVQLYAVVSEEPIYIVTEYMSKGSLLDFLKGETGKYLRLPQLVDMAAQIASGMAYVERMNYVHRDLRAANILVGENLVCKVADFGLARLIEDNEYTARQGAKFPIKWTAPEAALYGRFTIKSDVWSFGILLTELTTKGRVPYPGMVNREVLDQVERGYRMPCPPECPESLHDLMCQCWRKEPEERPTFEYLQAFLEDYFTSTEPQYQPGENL

Zap70 = molecular target: T11, Zap70 (Homo sapiens, UniProt P43403); assay: AlphaScreen kinase assay, Zap70; details: read-out: IC50, activity toward kinase Zap70
T11 construct: P1868.pFastBac1 ZAP70 D327-G606 HIS, WT; His7 (HHHHHHH) (C); made in house
T11 sequence (P43403 with tags, fused parts or gaps): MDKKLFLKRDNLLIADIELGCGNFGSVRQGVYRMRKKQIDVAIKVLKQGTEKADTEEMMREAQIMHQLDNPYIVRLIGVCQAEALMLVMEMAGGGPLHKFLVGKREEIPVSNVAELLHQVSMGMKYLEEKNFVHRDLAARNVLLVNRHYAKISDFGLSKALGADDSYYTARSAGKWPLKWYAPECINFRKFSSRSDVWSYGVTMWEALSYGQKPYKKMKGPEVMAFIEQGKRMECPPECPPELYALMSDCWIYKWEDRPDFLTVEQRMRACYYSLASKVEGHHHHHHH
Summary of the method: as §1

Kdr = molecular target: T12, Kdr (Homo sapiens, UniProt P35968); assay: Z'-Lyte FRET kinase assay (Invitrogen), Kdr; details: read-out: IC50, activity toward kinase Kdr
T12 construct: purchased Invitrogen (assay run by Invitrogen)
T12 sequence (P35968 20-1356): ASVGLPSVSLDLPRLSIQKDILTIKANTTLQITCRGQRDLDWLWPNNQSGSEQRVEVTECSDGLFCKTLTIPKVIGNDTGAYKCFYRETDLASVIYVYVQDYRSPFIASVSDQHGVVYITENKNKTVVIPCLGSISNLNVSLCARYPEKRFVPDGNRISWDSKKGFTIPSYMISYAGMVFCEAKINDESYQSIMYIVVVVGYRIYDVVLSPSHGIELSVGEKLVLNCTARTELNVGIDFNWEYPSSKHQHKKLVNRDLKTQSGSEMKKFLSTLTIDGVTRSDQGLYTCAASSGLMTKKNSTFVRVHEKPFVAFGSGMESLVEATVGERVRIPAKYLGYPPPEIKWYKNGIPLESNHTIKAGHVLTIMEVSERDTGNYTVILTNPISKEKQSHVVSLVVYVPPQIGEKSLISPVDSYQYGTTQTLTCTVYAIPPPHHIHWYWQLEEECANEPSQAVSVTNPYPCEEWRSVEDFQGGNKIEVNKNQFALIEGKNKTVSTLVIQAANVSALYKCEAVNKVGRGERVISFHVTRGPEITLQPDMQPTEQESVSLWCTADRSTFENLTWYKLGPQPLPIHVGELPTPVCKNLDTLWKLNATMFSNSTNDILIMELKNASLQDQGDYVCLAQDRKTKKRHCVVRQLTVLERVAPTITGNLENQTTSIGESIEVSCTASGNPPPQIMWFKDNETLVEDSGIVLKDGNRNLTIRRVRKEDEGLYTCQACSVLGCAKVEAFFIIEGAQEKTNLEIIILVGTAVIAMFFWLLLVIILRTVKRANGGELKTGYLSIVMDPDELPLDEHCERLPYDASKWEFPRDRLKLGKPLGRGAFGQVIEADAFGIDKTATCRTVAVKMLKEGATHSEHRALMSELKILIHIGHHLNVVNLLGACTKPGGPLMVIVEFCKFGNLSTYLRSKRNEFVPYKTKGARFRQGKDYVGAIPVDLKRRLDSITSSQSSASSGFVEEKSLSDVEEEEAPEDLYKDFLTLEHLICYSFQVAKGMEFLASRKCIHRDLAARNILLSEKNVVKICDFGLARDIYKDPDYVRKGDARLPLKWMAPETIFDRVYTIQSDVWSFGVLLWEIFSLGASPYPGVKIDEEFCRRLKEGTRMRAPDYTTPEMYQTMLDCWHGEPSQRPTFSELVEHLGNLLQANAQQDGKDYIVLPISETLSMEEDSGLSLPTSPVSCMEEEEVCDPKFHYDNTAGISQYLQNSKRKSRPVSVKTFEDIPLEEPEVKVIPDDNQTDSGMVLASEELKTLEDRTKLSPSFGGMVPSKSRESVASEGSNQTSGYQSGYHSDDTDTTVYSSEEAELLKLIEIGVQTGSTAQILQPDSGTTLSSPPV

Flt1 = molecular target: T13, Flt1 (Homo sapiens, UniProt P17948); assay: AlphaScreen kinase assay, Flt1; details: read-out: IC50, activity toward kinase Flt1
T13 construct: P1826.pETN6 BI-PTP FLT1 M799-D1165-X WT; His6 (N); made in house; host or cells: E. coli (PTP1B co-expressed)
T13 sequence (P17948 with tags, fused parts or gaps): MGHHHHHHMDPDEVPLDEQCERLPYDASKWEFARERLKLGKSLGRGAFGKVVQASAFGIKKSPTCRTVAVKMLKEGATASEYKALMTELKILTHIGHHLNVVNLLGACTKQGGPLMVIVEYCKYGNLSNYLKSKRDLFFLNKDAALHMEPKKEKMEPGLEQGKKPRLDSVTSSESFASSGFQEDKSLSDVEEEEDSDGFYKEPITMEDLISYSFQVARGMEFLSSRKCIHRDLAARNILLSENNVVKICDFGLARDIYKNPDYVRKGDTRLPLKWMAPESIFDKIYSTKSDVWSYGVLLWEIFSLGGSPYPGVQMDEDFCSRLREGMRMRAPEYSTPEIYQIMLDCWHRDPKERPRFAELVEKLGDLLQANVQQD

Fms = molecular target: T14, Fms (Homo sapiens, UniProt P07333); assay: AlphaScreen kinase assay, Fms; details: read-out: IC50, activity toward kinase Fms
T14 construct: purchased Upstate Biotechnology

c-Raf-1 = molecular target: T15, c-Raf-1 (Homo sapiens, UniProt P04049); assay: AlphaScreen kinase assay, c-Raf-1; details: read-out: IC50, activity toward kinase c-Raf-1
T15 construct: purchased Upstate Biotechnology

Fak = molecular target: T16, Fak (Homo sapiens, UniProt Q05397); assay: AlphaScreen kinase assay, Fak; details: read-out: IC50, activity toward kinase Fak
T16 construct: P1358.pFastBacHtb FAK S411-Q686-X; His6 with pFastBacHTb leader (TEV site) (N); made in house; host or cells: Sf9 (baculovirus)
T16 sequence (Q05397 411-686): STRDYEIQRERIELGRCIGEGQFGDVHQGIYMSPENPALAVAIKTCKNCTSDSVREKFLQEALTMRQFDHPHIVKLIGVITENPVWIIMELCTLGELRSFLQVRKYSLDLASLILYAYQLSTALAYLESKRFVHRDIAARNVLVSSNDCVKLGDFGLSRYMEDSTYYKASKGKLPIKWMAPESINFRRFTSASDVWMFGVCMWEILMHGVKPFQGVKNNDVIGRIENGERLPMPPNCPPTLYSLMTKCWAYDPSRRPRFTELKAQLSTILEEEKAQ

MAP4K4 = MAP4K4 (Homo sapiens, UniProt O95819); assay: AlphaScreen kinase assay, MAP4K4; details: read-out: IC50, activity toward kinase MAP4K4
Jnk1 = molecular target: T17, Jnk1 (Homo sapiens, UniProt P45983); assay: AlphaScreen kinase assay, Jnk1; details: read-out: IC50, activity toward kinase Jnk1
T17 construct: purchased Upstate Biotechnology

T1 sequence (P15056 with tags, fused parts or gaps V600E): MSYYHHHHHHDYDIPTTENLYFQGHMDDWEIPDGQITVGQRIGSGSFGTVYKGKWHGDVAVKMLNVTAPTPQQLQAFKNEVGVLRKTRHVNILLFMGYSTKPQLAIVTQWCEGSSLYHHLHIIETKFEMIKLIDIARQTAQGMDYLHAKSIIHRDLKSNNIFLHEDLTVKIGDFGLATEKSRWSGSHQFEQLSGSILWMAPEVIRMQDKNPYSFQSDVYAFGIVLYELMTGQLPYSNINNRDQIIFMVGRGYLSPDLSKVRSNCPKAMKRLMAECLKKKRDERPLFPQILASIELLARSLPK

Row | SMILES | IC50 (B-Raf V600E) [µM] | IC50 (Ret) [µM] | IC50 (Flt4) [µM] | IC50 (FGFR1) [µM] | IC50 (Jnk2) [µM] | IC50 (Jnk3) [µM] | IC50 (Kit) [µM] | IC50 (Abl) [µM] | IC50 (B-Raf) [µM] | IC50 (Src) [µM] | IC50 (Zap70) [µM] | IC50 (Kdr) [µM] | IC50 (Flt1) [µM] | IC50 (Fms) [µM] | IC50 (c-Raf-1) [µM] | IC50 (Fak) [µM] | IC50 (Jnk1) [µM] | IC50 (MAP4K4) [µM]
1 | O=C(c1ccc2ccccc2c1)c1c[nH]c2ncccc12 [Compound P-0495] |  | ≤ 10 | ≤ 10 | ≤ 10 |  |  | ≤ 10 |  |  |  | ≤ 10 | ≤ 10 |  |  |  |  |  | ≤ 10
2 | NC(=O)c1ccc(-c2cnc3[nH]cc(C(=O)c4ccccc4F)c3c2)cc1 [Compound P-0691] | ≤ 10 | ≤ 10 | ≤ 10 | ≤ 10 |  | ≤ 10 | ≤ 10 | ≤ 10 |  |  |  | ≤ 10 | ≤ 10 |  |  | ≤ 10 | ≤ 10 | 
3 | NC(=O)c1ccc(-c2cnc3[nH]cc(C(=O)c4cccc(O)c4)c3c2)cc1 [Compound P-0645] | ≤ 10 | ≤ 10 | ≤ 10 | ≤ 10 |  | ≤ 10 | ≤ 10 | ≤ 10 |  | ≤ 10 |  | ≤ 10 |  |  |  |  |  | 
4 | O=C(c1cccc(F)c1F)c1c[nH]c2nccc(-c3cc(F)cc(F)c3)c12 [Compound P-0205] | ≤ 10 | ≤ 10 | ≤ 10 | ≤ 10 |  |  | ≤ 10 |  |  |  | ≤ 10 |  |  |  |  |  |  | 
5 | Nc1cccc(-c2cnc3[nH]cc(C(=O)c4ccc(Cl)cc4)c3c2)c1 [Compound P-0738] |  | ≤ 10 | ≤ 10 |  |  | ≤ 10 | ≤ 10 | ≤ 10 |  |  |  | ≤ 10 |  |  |  |  |  | 

Now from value to compound, other results behind:

Row | IC50 (B-Raf V600E) [µM] | IC50 (Ret) [µM] | IC50 (Flt4) [µM] | IC50 (FGFR1) [µM] | IC50 (Jnk2) [µM] | IC50 (Jnk3) [µM] | IC50 (Kit) [µM] | IC50 (Abl) [µM] | IC50 (B-Raf) [µM] | IC50 (Src) [µM] | IC50 (Zap70) [µM] | IC50 (Kdr) [µM] | IC50 (Flt1) [µM] | IC50 (Fms) [µM] | IC50 (c-Raf-1) [µM] | IC50 (Fak) [µM] | IC50 (Jnk1) [µM] | SMILES | IC50 (MAP4K4) [µM]
6 | ≤ 10 | ≤ 10 | ≤ 10 | ≤ 10 | ≤ 10 | ≤ 10 | ≤ 10 | ≤ 10 | ≤ 10 |  |  |  |  |  |  |  |  | COc1cc(O)cc(Cc2c[nH]c3ncc(-c4ccsc4)cc23)c1 [Compound P-0594] | 
7 | ≤ 10 | ≤ 10 | ≤ 10 | ≤ 10 |  |  | ≤ 10 | ≤ 10 |  | ≤ 10 |  |  |  |  |  |  |  | COc1cccc(C(=O)C2C=Nc3nccc(-c4cc(F)cc(F)c4)c32)c1 (stereo not drawn) [Compound P-0453] | 
8 |  | ≤ 10 | ≤ 10 |  |  | ≤ 10 | ≤ 10 |  |  |  | ≤ 10 | ≤ 10 |  |  |  |  |  | Nc1cccc(-c2cnc3[nH]cc(C(=O)c4ccc5nsnc5c4)c3c2)c1 [Compound P-0703] | 
9 | ≤ 10 | ≤ 10 | ≤ 10 | ≤ 10 |  |  | ≤ 10 | ≤ 10 |  |  |  | ≤ 10 | ≤ 10 |  |  |  |  | O=C(c1cccc(Cl)c1Cl)c1c[nH]c2ncc(-c3cccnc3)cc12 [Compound P-0751] | 
10 | ≤ 10 | ≤ 10 | ≤ 10 | ≤ 10 |  | ≤ 10 | ≤ 10 | ≤ 10 |  |  |  |  | ≤ 10 | ≤ 10 | ≤ 10 |  |  | COc1ccc(F)c(C(=O)c2c[nH]c3ncc(-c4cccs4)cc23)c1 [Compound P-0656] | 
11 |  | ≤ 10 | ≤ 10 | ≤ 10 |  |  | ≤ 10 | ≤ 10 |  | ≤ 10 |  | ≤ 10 |  |  |  |  |  | O=C(c1cccc(F)c1)c1c[nH]c2nccc(-c3cc(F)cc(F)c3)c12 [Compound P-0316] | 
12 |  | ≤ 10 | ≤ 10 |  |  |  | ≤ 10 | ≤ 10 |  |  |  | ≤ 10 | ≤ 10 |  |  | ≤ 10 |  | Cc1cc(C(=O)c2c[nH]c3ncc(-c4cccc(C(N)=O)c4)cc23)n(C)n1 [Compound P-0224] | 
13 | ≤ 10 | ≤ 10 | ≤ 10 |  |  |  | ≤ 10 | ≤ 10 |  |  |  | ≤ 10 |  |  |  |  |  | Cc1cc(C(=O)c2c[nH]c3ncc(-c4ccc(C(N)=O)cc4)cc23)n(C)n1 [Compound P-0762] | 

From patent publication US8415469B2, “Compounds and methods for kinase modulation, and indications therefor” (Plexxikon Inc., priority 2005, dated 2013)
